Molecules are shown by their SMILES. Like-named read-outs stand apart in the source and are kept apart here.

This is an account of results in patent publication US20230072683A1, “PYRIDO-PYRIMIDIN DERIVATIVES AND PHARMACEUTICAL COMPOSITION, FOR USE IN PREVENTING OR TREATING PI3 KINASE RELATED DISEASES, COMPRISING SAME AS ACTIVE INGREDIENT” (BORYUNG PHARMACEUTICAL CO., LTD, priority 2019, published 2023).

The target of experiment [1] is PI3K-δ (PI3K(p1108/p857) (h)) (Homo sapiens, UniProt O00329). Kind of experiment: Evaluation of inhibitory activity against PI3K-δ (HTRF kinase assay). It is filed as biochemical. Particulars: for inhibition at 0.01 µM: compound concentration 0.01 μM, read-out: EXP_VALUE(% Inhibition) PI3K-δ 0.01 μM; for inhibition at 0.1 µM: read-out: EXP_VALUE(% Inhibition) PI3K-δ 0.1 μM. Summed up: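 HTRF read-out (665/620 nm ratio ×10000) used Eu-labelled anti-GST, GST-tagged GRP1 PH domain and streptavidin-allophycocyanin after EDTA/PIP3 stop.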

A further experiment concerns the target DNA-PK(h) (Homo sapiens, UniProt P78527). Nature of the experiment: Evaluation of inhibitory activity against DNA-PK (HTRF kinase assay, GST-cMyc-p53 substrate). It is filed as biochemical. Particulars: for inhibition at 0.01 µM: compound concentration 0.01 μM, read-out: EXP_VALUE(% Inhibition) DNA-PK(h) 0.01 μM; for inhibition at 0.1 µM: read-out: EXP_VALUE(% Inhibition) DNA-PK(h) 0.1 μM. Summed up: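 Human DNA-PK with 50 μM GST-cMyc-p53 substrate; reaction started with Mg/ATP, run 30 min at room temperature, stopped with EDTA. Phospho-Ser15 p53 detected by HTRF (Eu anti-phospho-Ser15, d2 anti-GST), signal = 10000×(Em 665/Em 620).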

Chain of PI3K-δ (PI3K(p1108/p857) (h)) (O00329 whole entry, the tested form may be a part): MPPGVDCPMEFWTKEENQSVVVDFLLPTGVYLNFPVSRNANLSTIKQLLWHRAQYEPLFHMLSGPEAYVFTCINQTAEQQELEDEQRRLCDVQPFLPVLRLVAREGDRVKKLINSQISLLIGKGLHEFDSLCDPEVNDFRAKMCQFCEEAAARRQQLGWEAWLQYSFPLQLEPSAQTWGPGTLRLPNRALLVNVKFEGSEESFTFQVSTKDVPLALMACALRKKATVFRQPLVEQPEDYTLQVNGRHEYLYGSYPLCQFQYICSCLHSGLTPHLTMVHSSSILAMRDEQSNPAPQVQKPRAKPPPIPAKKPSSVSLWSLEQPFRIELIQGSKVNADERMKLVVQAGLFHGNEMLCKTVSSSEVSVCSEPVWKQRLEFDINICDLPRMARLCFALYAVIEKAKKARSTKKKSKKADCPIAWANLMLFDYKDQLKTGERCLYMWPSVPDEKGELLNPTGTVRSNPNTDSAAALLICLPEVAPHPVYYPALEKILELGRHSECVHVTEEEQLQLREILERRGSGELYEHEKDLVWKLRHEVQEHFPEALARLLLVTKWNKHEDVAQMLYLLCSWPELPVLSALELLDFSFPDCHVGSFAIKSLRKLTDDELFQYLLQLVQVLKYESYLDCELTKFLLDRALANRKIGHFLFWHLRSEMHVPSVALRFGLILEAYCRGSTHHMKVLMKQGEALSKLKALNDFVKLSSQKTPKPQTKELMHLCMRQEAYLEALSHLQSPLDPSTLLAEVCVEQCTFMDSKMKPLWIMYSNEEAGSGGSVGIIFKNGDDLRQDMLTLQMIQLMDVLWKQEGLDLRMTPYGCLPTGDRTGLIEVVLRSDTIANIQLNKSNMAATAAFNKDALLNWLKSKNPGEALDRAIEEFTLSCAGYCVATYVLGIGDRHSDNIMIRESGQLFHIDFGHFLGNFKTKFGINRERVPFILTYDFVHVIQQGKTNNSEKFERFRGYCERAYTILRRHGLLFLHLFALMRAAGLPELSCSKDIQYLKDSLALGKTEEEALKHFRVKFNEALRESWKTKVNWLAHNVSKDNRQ
Chain of PI3K-δ (PI3K(p1108/p857) (h)) (P27986 whole entry partner, the tested form may be a part): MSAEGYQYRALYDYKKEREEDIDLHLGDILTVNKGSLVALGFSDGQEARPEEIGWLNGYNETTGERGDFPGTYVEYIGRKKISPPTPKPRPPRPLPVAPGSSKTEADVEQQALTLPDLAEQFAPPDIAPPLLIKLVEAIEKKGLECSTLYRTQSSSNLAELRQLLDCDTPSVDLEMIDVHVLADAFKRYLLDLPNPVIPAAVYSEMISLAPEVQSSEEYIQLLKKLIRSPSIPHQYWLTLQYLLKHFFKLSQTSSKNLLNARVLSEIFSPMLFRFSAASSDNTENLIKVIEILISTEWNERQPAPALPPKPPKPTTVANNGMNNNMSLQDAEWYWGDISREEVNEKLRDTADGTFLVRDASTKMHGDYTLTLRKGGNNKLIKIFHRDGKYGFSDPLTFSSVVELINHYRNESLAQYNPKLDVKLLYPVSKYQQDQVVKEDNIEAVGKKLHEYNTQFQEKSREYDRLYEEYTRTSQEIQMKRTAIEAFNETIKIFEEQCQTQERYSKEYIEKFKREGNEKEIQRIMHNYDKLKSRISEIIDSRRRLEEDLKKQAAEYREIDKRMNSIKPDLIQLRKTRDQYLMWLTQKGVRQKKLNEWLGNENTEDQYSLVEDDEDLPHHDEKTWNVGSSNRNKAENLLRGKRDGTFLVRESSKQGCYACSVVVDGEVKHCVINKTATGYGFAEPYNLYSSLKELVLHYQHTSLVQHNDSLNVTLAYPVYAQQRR

In general, inhibition refers to the change of the read-out against control, counted positive when it falls. As to `C[C@H](Nc1ncnc2[nH]ccc(=O)c12)c1c(Cl)c2cccc(-c3ccc(N4CCN(C(=O)OC(C)(C)C)CC4)cc3)c2c(=O)n1-c1ccccc1` [Example 138, tert-butyl(S)-4-(4-(4-chloro-1-oxo-3-(1-((5-oxo-5,8-dihydropyrido[2,3-d]pyrimidin-4-yl)amino)ethyl)-2-phenyl-1,2-dihydroisoquinolin-8-yl)phenyl)piperazin-1-carboxylate], the results for the inhibition at 0.01 µM (in experiment [1]; on DNA-PK(h)) were 33% and 32%, respectively. Moreover, the inhibition at 0.1 µM turned out to be 81% in experiment [1] (compound concentration 0.1 μM) and 75% on DNA-PK(h) (compound concentration 0.1 μM).
Turning to `COc1ncc(-c2cccc3c(Cl)c([C@H](C)Nc4ncnc5[nH]ccc(=O)c45)n(-c4ccccc4)c(=O)c23)cc1C#N` [Example 229, (S)-5-(4-chloro-1-oxo-3-(1-((5-oxo-5,8-dihydropyrido[2,3-d]pyrimidin-4-yl)amino)ethyl)-2-phenyl-1,2-dihydroisoquinolin-8-yl)-2-methoxynicotinonitrile], the results for the inhibition at 0.01 µM (in experiment [1]; at DNA-PK(h)) were 68% and 45%, respectively.
On to `C[C@H](Nc1ncnc2[nH]ccc(=O)c12)c1c(Cl)c2cccc(NS(=O)(=O)C3CC3)c2c(=O)n1-c1ccccc1` [Example 301, (S)—N-(4-chloro-1-oxo-3-(1-((5-oxo-5,8-dihydropyrido[2,3-d]pyrimidin-4-yl)amino)ethyl)-2-phenyl-1,2-dihydroisoquinolin-8-yl)cyclopropanesulfonamide], for which the inhibition at 0.01 µM stood at 41% in experiment [1] and 14% at DNA-PK(h).
Regarding `C[C@H](Nc1ncnc2[nH]ccc(=O)c12)c1c(Cl)c2cccc(-c3ccc4nncn4c3)c2c(=O)n1-c1ccccc1` [Example 37, (S)-4-((1-(8-([1,2,4]triazolo[4,3-a]pyridin-6-yl)-4-chloro-1-oxo-2-phenyl-1,2-dihydroisoquinolin-3-yl)ethyl)amino)pyrido[2,3-d]pyrimidin-5(8H)-one], the inhibition at 0.01 µM was determined as 89% in experiment [1] and 60% on DNA-PK(h).
With `CC(C)Oc1cc(-c2cccc3c(Cl)c([C@H](C)Nc4ncnc5[nH]ccc(=O)c45)n(-c4ccccc4)c(=O)c23)ccn1` [Example 180, (S)-4-((1-(4-chloro-8-(2-isopropoxypyridin-4-yl)-1-oxo-2-phenyl-1,2-dihydroisoquinolin-3-yl)ethyl)amino)pyrido[2,3-d]pyrimidin-5(8H)-one], the figures for the inhibition at 0.01 µM (in experiment [1]; on DNA-PK(h)) were 83% and 59%, respectively.
For `CCOC(C)(C)c1ncc(-c2cccc3c(Cl)c([C@H](C)Nc4ncnc5[nH]ccc(=O)c45)n(-c4ccccc4)c(=O)c23)cn1` [Example 404, (S)-4-((1-(4-chloro-8-(2-(2-ethoxypropan-2-yl)pyrimidin-5-yl)-1-oxo-2-phenyl-1,2-dihydroisoquinolin-3-yl)ethyl)amino)pyrido[2,3-d]pyrimidin-5(8H)-one], the values for the inhibition at 0.1 µM (in experiment [1] (compound at 0.1 μM); at DNA-PK(h) (compound at 0.1 μM)) were 70% and 78%, respectively.
As for `C[C@H](Nc1ncnc2[nH]ccc(=O)c12)c1c(Cl)c2cccc(-c3ccc4[nH]c(=O)[nH]c4c3)c2c(=O)n1-c1ccccc1` [Example 21, (S)-4-((1-(4-chloro-1-oxo-8-(2-oxo-2,3-dihydro-1H-benzo[d]imidazol-5-yl)-2-phenyl-1,2-dihydroisoquinolin-3-yl)ethyl)amino)pyrido[2,3-d]pyrimidin-5(8H)-one], the figures for the inhibition at 0.01 µM (in experiment [1]; at DNA-PK(h)) were 90% and 69%, respectively. In addition, the values for the inhibition at 0.1 µM (in experiment [1] (compound concentration 0.1 μM); at DNA-PK(h) (compound concentration 0.1 μM)) were 99% and 95%, respectively.
For `C[C@H](Nc1ncnc2[nH]ccc(=O)c12)c1c(Cl)c2cccc(Nc3cccnc3)c2c(=O)n1-c1ccccc1` [Example 347, (S)-4-((1-(4-chloro-1-oxo-2-phenyl-8-(pyridin-3-ylamino)-1,2-dihydroisoquinolin-3-yl)ethyl)amino)pyrido[2,3-d]pyrimidin-5(8H)-one], the inhibition at 0.01 µM in experiment [1] was 11%; at DNA-PK(h), 28%.
`C[C@H](Nc1ncnc2[nH]ccc(=O)c12)c1c(Cl)c2cccc([S+]([O-])c3ccccn3)c2c(=O)n1-c1ccccc1` (stereo partly drawn) [Example 413, 4-(((1S)-1-(4-chloro-1-oxo-2-phenyl-8-(pyridin-2-ylsulfinyl)-1,2-dihydroisoquinolin-3-yl)ethyl)amino)pyrido[2,3-d]pyrimidin-5(8H)-one]: the figures for the inhibition at 0.1 µM (in experiment [1] (compound at 0.1 μM); at DNA-PK(h) (compound at 0.1 μM)) were 16% and 30%, respectively.
As to `C[C@H](Nc1ncnc2[nH]ccc(=O)c12)c1c(Cl)c2cccc(C#Cc3ccnn3C)c2c(=O)n1-c1ccccc1` [Example 311, (S)-4-((1-(4-chloro-8-((1-methyl-1H-pyrazol-5-yl)ethynyl)-1-oxo-2-phenyl-1,2-dihydroisoquinolin-3-yl)ethyl)amino)pyrido[2,3-d]pyrimidin-5(8H)-one], the inhibition at 0.01 µM was determined as 18.2% in experiment [1] and 47.1% at DNA-PK(h). In addition, the values for the inhibition at 0.1 µM (in experiment [1] (compound concentration 0.1 μM); on DNA-PK(h) (compound concentration 0.1 μM)) were 39.5% and 82.2%, respectively.
For the compound `C[C@H](Nc1ncnc2[nH]ccc(=O)c12)c1c(Cl)c2cccc(-c3ccc(OC(F)(F)F)nc3)c2c(=O)n1-c1ccccc1` [Example 223, (S)-4-((1-(4-chloro-1-oxo-2-phenyl-8-(6-(trifluoromethoxy)pyridin-3-yl)-1,2-dihydroisoquinolin-3-yl)ethyl)amino)pyrido[2,3-d]pyrimidin-5(8H)-one], the results for the inhibition at 0.01 µM (in experiment [1]; at DNA-PK(h)) were 68% and 34%, respectively.
`C[C@H](Nc1ncnc2[nH]ccc(=O)c12)c1c(Cl)c2cccc(NC(=O)c3ccccc3)c2c(=O)n1-c1ccccc1` [Example 299, (S)—N-(4-chloro-1-oxo-3-(1-((5-oxo-5,8-dihydropyrido[2,3-d]pyrimidin-4-yl)amino)ethyl)-2-phenyl-1,2-dihydroisoquinolin-8-yl)benzamide]: the inhibition at 0.01 µM in experiment [1] was determined as 13%; on DNA-PK(h), 17%.
On to `C[C@H](Nc1ncnc2[nH]ccc(=O)c12)c1c(Cl)c2cccc(C(=O)NCc3ccncc3)c2c(=O)n1-c1ccccc1` [Example 439, (S)-4-chloro-1-oxo-3-(1-((5-oxo-5,8-dihydropyrido[2,3-d]pyrimidin-4-yl)amino)ethyl)-2-phenyl-N-(pyridin-4-ylmethyl)-1,2-dihydroisoquinoline-8-carboxamide], for which the inhibition at 0.1 µM came to 92% in experiment [1] (compound at 0.1 μM) and 16% on DNA-PK(h) (compound at 0.1 μM).
In the case of `COc1cc(-c2cccc3c(Cl)c([C@H](C)Nc4ncnc5[nH]ccc(=O)c45)n(-c4ccccc4)c(=O)c23)ccc1Cl` [Example 99, (S)-4-((1-(4-chloro-8-(4-chloro-3-methoxyphenyl)-1-oxo-2-phenyl-1,2-dihydroisoquinolin-3-yl)ethyl)amino)pyrido[2,3-d]pyrimidin-5(8H)-one], the inhibition at 0.01 µM in experiment [1] came to 83%; on DNA-PK(h), 54%. The inhibition at 0.1 µM in experiment [1] (compound concentration 0.1 μM) worked out at 108%; at DNA-PK(h) (compound concentration 0.1 μM), 95%.
For `C[C@H](Nc1ncnc2[nH]ccc(=O)c12)c1c(Cl)c2cccc(-c3ccccc3F)c2c(=O)n1-c1ccccc1` [Example 122, (S)-4-((1-(4-chloro-8-(2-fluorophenyl)-1-oxo-2-phenyl-1,2-dihydroisoquinolin-3-yl)ethyl)amino)pyrido[2,3-d]pyrimidin-5(8H)-one] the same measures were 68%, 61%, 88% and 92%.
On to `C[C@H](Nc1ncnc2[nH]ccc(=O)c12)c1c(Cl)c2cccc(-c3ccc(C=O)cc3)c2c(=O)n1-c1ccccc1` [Example 85, (S)-4-(4-chloro-1-oxo-3-(1-((5-oxo-5,8-dihydropyrido[2,3-d]pyrimidin-4-yl)amino)ethyl)-2-phenyl-1,2-dihydroisoquinolin-8-yl)benzaldehyde], for which the inhibition at 0.01 µM in experiment [1] stood at 73%; at DNA-PK(h), 56%. The inhibition at 0.1 µM came to 95% in experiment [1] (compound concentration 0.1 μM) and 91% at DNA-PK(h) (compound concentration 0.1 μM).
For `C[C@H](Nc1ncnc2[nH]ccc(=O)c12)c1c(Br)c2cccc(-c3cnn(C)c3)c2c(=O)n1-c1ccccc1` [Example 19, (S)-4-((1-(4-bromo-8-(1-methyl-1H-pyrazol-4-yl)-1-oxo-2-phenyl-1,2-dihydroisoquinolin-3-yl)ethyl)amino)pyrido[2,3-d]pyrimidin-5(8H)-one], the figures for the inhibition at 0.01 µM (in experiment [1]; on DNA-PK(h)) were 89% and 78%, respectively. Moreover, the results for the inhibition at 0.1 µM (in experiment [1] (compound concentration 0.1 μM); on DNA-PK(h) (compound concentration 0.1 μM)) were 102% and 98%, respectively.
On to `C[C@H](Nc1ncnc2[nH]ccc(=O)c12)c1c(Cl)c2cccc(-c3ccc(C(F)(F)F)nc3)c2c(=O)n1-c1ccccc1` [Example 181, (S)-4-((1-(4-chloro-1-oxo-2-phenyl-8-(6-(trifluoromethyl)pyridin-3-yl)-1,2-dihydroisoquinolin-3-yl)ethyl)amino)pyrido[2,3-d]pyrimidin-5(8H)-one], for which the figures for the inhibition at 0.01 µM (in experiment [1]; at DNA-PK(h)) were 101% and 61%, respectively.
On to `CCCSc1ccc(-c2cccc3c(Cl)c([C@H](C)Nc4ncnc5[nH]ccc(=O)c45)n(-c4ccccc4)c(=O)c23)cc1` [Example 151, (S)-4-((1-(4-chloro-1-oxo-2-phenyl-8-(4-(propylthio)phenyl)-1,2-dihydroisoquinolin-3-yl)ethyl)amino)pyrido[2,3-d]pyrimidin-5(8H)-one], for which the inhibition at 0.01 µM came to 44% in experiment [1] and 23% on DNA-PK(h).
